Assay results reported in patent publication US20240246940A1, “HETEROARYL DERIVATIVE COMPOUND AND USE THEREOF” (VORONOI INC., priority 2021, published 2024).

Legend:
[1] = target: T1, HER2 (Homo sapiens, UniProt P04626); experiment: Biochemical kinase assay for HER2 (Reaction Biology Corp), ATP 10 μM, 10-dose IC50
T1 construct: purchased Reaction Biology Corp
Protocol: Biochemical kinase assays for HER2 and EGFR were performed by Reaction Biology Corp (San Diego, USA).

[2] = system: Ba/F3 cells expressing HER2 T862A; experiment: Transduced Ba/F3 cell proliferation inhibitory activity, HER2 T862A; type: cell-based; conditions: Mus musculus, BaF3, 72 hours
Protocol: (§1) For Ba/F3 cells, RPMI-1640 supplemented with 10% FBS and 5 ng/ml IL-3 (R&D Systems) was used. Transduced Ba/F3 cells were cultured by adding 1 μg/ml puromycin (Invitrogen) to the same medium.
(§2) 3000 to 5000 cells were aliquoted into each well of a white clear bottom 96 well plate (Corning) 24 hours before treatment with the compounds of Examples. The compounds of Examples were diluted in dimethyl sulfoxide (three-fold dilution, a total of 12 concentrations) and injected each in an amount of 1 μl to a final concentration of 0.2 nM to 5 μM. For the measurement of living cells, the cells were stored at room temperature for 10 minutes using CellTiter-Glo luminescent cell-viability reagent (Promega) in 72 hours after treatment with the compounds of Examples, and the luminescence intensity thereof was measured using a reader (SynergyNeo, Biotek). Each test was repeated three times. The result values were calculated as a cell growth rate (%) compared to those of the control group. A graph was created using the GraphPad Prism version 8.3.0 program, and GI50 values were calculated.

[3] = system: Ba/F3 cells expressing HER2 L756S; experiment: Transduced Ba/F3 cell proliferation inhibitory activity, HER2 L756S; type: cell-based; conditions: Mus musculus, BaF3; Ba/F3 HER2 L755S, 72 hours
Protocol: as §1, §2

[4] = system: SK-BR-3 cells (HER2 overexpressing cell line); experiment: SK-BR-3 cell proliferation inhibitory activity (CellTiter-Glo, 120 hours); type: cell-based; conditions: Homo sapiens
How it was run: (§3)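 Three independent repeats measured growth inhibition across 11 concentrations. The top final concentration was 10 μM for SK-BR-3 and BT-474, 5 μM for N-87 and 45 μM for HaCaT. Growth relative to control, read by luminescence, yielded GI50.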

[5] = system: N-87 cells (HER2 overexpressing cell line); experiment: N-87 cell proliferation inhibitory activity (CellTiter-Glo, 72 hours); type: cell-based
Protocol: To evaluate the cell proliferation inhibitory activity of the compound according to the present invention on HER2 and EGFR kinases, the following method was performed using HER2 overexpressing cell lines (SK-BR-3, BT-474, and N-87) and EGFR expressing cell line (HaCaT).
McCOY'S 5A supplemented with 10% FBS was used for SK-BR-3 cells, RPMI-1640 medium supplemented with 20% FBS was used for BT-474 cancer cells, and RPMI-1640 medium supplemented with 10% FBS was used for N-87 cancer cells. DMEM supplemented with 10% FBS was used for HaCaT cells.
For SK-BR-3 cells, 5000 cells were aliquoted into each well of a white clear bottom 96 well plate (Corning) 48 hours before treatment with the compounds of Examples. For BT-474 cells, 5000 cells were aliquoted into each well of a white clear bottom 96 well plate (Corning) 48 hours before treatment with the compounds of Examples. For N-87 cells, 5000 cells were aliquoted into each well of a white clear bottom 96 well plate (Corning) 24 hours before treatment with the compounds of Examples. For HaCaT cells, 3000 cells were aliquoted into each well of a white clear bottom 96 well plate (Corning) 24 hours before treatment with the compounds of Examples. For SK-BR-3 cells and BT-474 cells, the compounds of Examples were diluted in dimethyl sulfoxide (three-fold dilution, a total of 11 concentrations) and injected each in an amount of 1 μl to a final concentration of 0.2 nM to 10 μM. For N-87 cells, the compounds of Examples were diluted in dimethyl sulfoxide (five-fold dilution, a total of 11 concentrations) and injected each in an amount of 0.5 μl to a final concentration of […] to 5 μM. For HaCaT cells, the compounds of Examples were diluted in dimethyl sulfoxide (three-fold dilution, a total of 11 concentrations) and injected each in an amount of 0.5 μl to a final concentration of 0.8 nM to 45 μM. For the measurement of living cells, the cells were stored at room temperature for 10 minutes using CellTiter-Glo cell viability reagent (Promega) after a certain period of time (SK-BR-3: 120 hours, BT-474: 120 hours, N-87: 72 hours, and HaCaT: 72 hours) post treatment with the compounds of Examples, and the luminescence intensity thereof was measured using a reader (SynergyNeo, Biotek). Each test was repeated three times.
The result values were calculated as a cell growth rate (%) compared to those of the control group. A graph was created using the GraphPad Prism version 5.0 program, and GI50 values were calculated.

[6] = system: BT-474 cells (HER2 overexpressing cell line); experiment: BT-474 cell proliferation inhibitory activity (CellTiter-Glo, 120 hours); type: cell-based; conditions: Homo sapiens
How it was run: as §3

[7] = system: HaCaT cells (EGFR expressing cell line); experiment: HaCaT cell proliferation inhibitory activity (CellTiter-Glo, 72 hours); type: cell-based; conditions: Homo sapiens
How it was run: as §3

[8] = system: Ba/F3 cells expressing HER2 L869R; experiment: Transduced Ba/F3 cell proliferation inhibitory activity, HER2 L869R; type: cell-based; conditions: Mus musculus, BaF3, 72 hours
Protocol: as §1, §2

T1 sequence (P04626 23-1255): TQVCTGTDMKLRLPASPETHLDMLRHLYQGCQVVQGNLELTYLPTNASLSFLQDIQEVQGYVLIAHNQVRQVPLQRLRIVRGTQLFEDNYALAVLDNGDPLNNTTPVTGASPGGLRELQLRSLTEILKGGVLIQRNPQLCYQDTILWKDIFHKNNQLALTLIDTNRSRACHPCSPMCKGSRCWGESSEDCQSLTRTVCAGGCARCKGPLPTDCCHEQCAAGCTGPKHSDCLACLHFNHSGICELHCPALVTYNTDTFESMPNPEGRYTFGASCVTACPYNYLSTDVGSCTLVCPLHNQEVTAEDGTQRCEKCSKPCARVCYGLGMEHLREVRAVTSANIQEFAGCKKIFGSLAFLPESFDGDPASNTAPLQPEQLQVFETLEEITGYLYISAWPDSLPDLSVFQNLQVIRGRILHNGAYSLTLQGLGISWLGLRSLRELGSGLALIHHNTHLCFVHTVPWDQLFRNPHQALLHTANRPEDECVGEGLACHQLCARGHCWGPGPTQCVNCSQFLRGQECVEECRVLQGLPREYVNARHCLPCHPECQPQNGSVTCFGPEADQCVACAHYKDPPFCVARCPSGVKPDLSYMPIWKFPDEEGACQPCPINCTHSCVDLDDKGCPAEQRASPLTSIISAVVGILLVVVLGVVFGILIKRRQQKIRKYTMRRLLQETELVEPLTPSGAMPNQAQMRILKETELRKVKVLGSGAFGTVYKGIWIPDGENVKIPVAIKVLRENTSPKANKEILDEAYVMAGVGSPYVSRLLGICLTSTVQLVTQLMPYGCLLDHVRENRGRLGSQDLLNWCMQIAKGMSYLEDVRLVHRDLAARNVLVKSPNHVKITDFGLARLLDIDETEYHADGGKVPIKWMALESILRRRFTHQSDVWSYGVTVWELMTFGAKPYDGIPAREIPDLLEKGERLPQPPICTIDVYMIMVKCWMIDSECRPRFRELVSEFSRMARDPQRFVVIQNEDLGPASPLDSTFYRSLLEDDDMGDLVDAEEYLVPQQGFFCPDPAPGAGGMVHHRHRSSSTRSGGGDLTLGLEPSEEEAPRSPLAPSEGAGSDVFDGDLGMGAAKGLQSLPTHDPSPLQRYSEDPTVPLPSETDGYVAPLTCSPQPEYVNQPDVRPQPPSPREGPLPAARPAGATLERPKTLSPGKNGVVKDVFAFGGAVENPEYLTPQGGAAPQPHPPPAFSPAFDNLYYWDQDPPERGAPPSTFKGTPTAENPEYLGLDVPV

| SMILES | IC50 [1] [nM] | GI50 [2] [nM] | GI50 [3] [nM] | GI50 [4] [nM] | GI50 [5] [nM] | GI50 [6] [nM] | GI50 [7] [nM] | GI50 [8] [nM] |
| --- | --- | --- | --- | --- | --- | --- | --- | --- |
| C=CC(=O)N1CCC(Oc2cc3c(Nc4cc(-c5cc(C)co5)ccc4OC)ncnc3cc2OC)CC1 [Example 90, 1-(4-((7-methoxy-4-((2-methoxy-5-(4-methylfuran-2-yl)phenyl)amino)quinazolin-6-yl)oxy)piperidin-1-yl)prop-2-en-1-one] | ≤ 50 |  |  |  |  |  |  |  |
| C=CC(=O)N1CCC(Oc2cc3c(Nc4cc(-c5ccco5)ccc4OC)ncnc3cc2OC)C(F)C1 (stereo not shown) [Example 112, 1-(3-fluoro-4-((4-((5-(furan-2-yl)-2-methoxyphenyl)amino)-7-methoxy-quinazolin-6-yl)oxy)piperidin-1-yl)prop-2-en-1-one] |  | ≤ 50 | ≤ 50 | ≤ 150 | ≤ 150 | ≤ 150 | ≤ 150 | ≤ 50 |
| C=CC(=O)N1CCC(Oc2cc3c(Nc4cc(-c5cccc(C(F)(F)F)c5F)ccc4OC)ncnc3cc2OC)CC1 [Example 138, 1-(4-((4-((2′-fluoro-4-methoxy-3′-(trifluoromethyl)-[1,1′-biphenyl]-3-yl)amino)-7-methoxy-quinazolin-6-yl)oxy)piperidin-1-yl)prop-2-en-1-one] |  |  |  | ≤ 150 | ≤ 150 | ≤ 150 | 150 to 1000 |  |
| C=CC(=O)N1CCC(Oc2cc3c(Nc4cc(-c5cccc(C(F)(F)F)c5)ccc4OC)ncnc3cc2OC)CC1 [Example 139, 1-(4-((7-methoxy-4-((4-methoxy-3′-(trifluoromethyl)-[1,1′-biphenyl]-3-yl)amino)quinazolin-6-yl)oxy)piperidin-1-yl)prop-2-en-1-one] |  |  |  | ≤ 150 | ≤ 150 | ≤ 150 | 150 to 1000 |  |
| C=CC(=O)N1CCC(Oc2cc3c(Nc4cc(-c5ccco5)c(F)cc4OC)ncnc3cc2OC)C(F)C1 (stereo not shown) [Example 140, 1-(3-fluoro-4-((4-((4-fluoro-5-(furan-2-yl)-2-methoxyphenyl)amino)-7-methoxy-quinazolin-6-yl)oxy)piperidin-1-yl)prop-2-en-1-one] |  |  |  | ≤ 150 | ≤ 150 | ≤ 150 | ≤ 150 |  |
| C=CC(=O)N1CCC(Oc2cc3c(Nc4cc(-c5ccc(F)c(C(F)(F)F)c5)ccc4OC)ncnc3cc2OC)CC1 [Example 142, 1-(4-((4-((4′-fluoro-4-methoxy-3′-(trifluoromethyl)-[1,1′-biphenyl]-3-yl)amino)-7-methoxy-quinazolin-6-yl)oxy)piperidin-1-yl)prop-2-en-1-one] |  |  |  | ≤ 150 | ≤ 150 | ≤ 150 | 150 to 1000 |  |
| C=CC(=O)N1CCC(Oc2cc3c(Nc4cc(-c5cccc(N(C)C)c5)ccc4OC)ncnc3cc2OC)CC1 [Example 151, 1-(4-((4-((3′-(dimethylamino)-4-methoxy-[1,1′-biphenyl]-3-yl)amino)-7-methoxy-quinazolin-6-yl)oxy)piperidin-1-yl)prop-2-en-1-one] |  |  |  | ≤ 150 | ≤ 150 | ≤ 150 | 150 to 1000 |  |
| C=CC(=O)N1CCC(Oc2cc3c(Nc4cc(-c5ccc(F)cc5F)c(F)cc4OC)ncnc3cc2OC)CC1 [Example 157, 1-(4-((7-methoxy-4-((2′,4′,6-trifluoro-4-methoxy-[1,1′-biphenyl]-3-yl)amino)quinazolin-6-yl)oxy)piperidin-1-yl)prop-2-en-1-one] | ≤ 50 |  |  |  | ≤ 150 | ≤ 150 | ≤ 150 |  |
| C=CC(=O)N1CCC(Oc2cc3c(Nc4cc(-c5cc(N)c(F)cc5C)ccc4OC)ncnc3cc2OC)CC1 [Example 161, 1-(4-((4-((5′-amino-4′-fluoro-4-methoxy-2′-methyl-[1,1′-biphenyl]-3-yl)amino)-7-methoxy-quinazolin-6-yl)oxy)piperidin-1-yl)prop-2-en-1-one] |  |  |  | ≤ 150 | ≤ 150 | ≤ 150 | ≤ 150 |  |
| C=CC(=O)N1CCC(Oc2cc3c(Nc4cc(-c5cccc(N)c5F)ccc4OC)ncnc3cc2OC)CC1 [Example 163, 1-(4-((4-((3′-amino-2′-fluoro-4-methoxy-[1,1′-biphenyl]-3-yl)amino)-7-methoxy-quinazolin-6-yl)oxy)piperidin-1-yl)prop-2-en-1-one] |  |  |  | ≤ 150 | ≤ 150 | 150 to 1000 | 150 to 1000 |  |
| C=CC(=O)N1CCC(Oc2cc3c(Nc4cc(-c5ccc(F)cc5F)ccc4OC4CC4)ncnc3cc2OC)CC1 [Example 260, 1-(4-((4-((4-cyclopropoxy-2′,4′-difluoro-[1,1′-biphenyl]-3-yl)amino)-7-methoxyquinazolin-6-yl)oxy)piperidin-1-yl)prop-2-en-1-one] |  |  |  | ≤ 150 | ≤ 150 | ≤ 150 | ≤ 150 |  |
| C=CC(=O)N1CCC(Nc2cc3c(Nc4cc(-c5ccco5)ccc4OC)ncnc3cc2OC2CCOC2)CC1 (stereo not shown) [Example 270, 1-(4-((4-((5-(furan-2-yl)-2-methoxyphenyl)amino)-7-((tetrahydrofuran-3-yl)oxy)quinazolin-6-yl)amino)piperidin-1-yl)prop-2-en-1-one] |  |  |  | ≤ 150 | ≤ 150 | ≤ 150 | ≤ 150 |  |
| C=CC(=O)N1CCC(Nc2cc3c(Nc4cc(-c5ccco5)ccc4OC)ncnc3cc2OCCCN2CCOCC2)CC1 [Example 278, 1-(4-((4-((5-(furan-2-yl)-2-methoxyphenyl)amino)-7-(3-morpholinopropoxy)quinazolin-6-yl)amino)piperidin-1-yl)prop-2-en-1-one] |  |  |  | ≤ 150 | ≤ 150 | ≤ 150 | ≤ 150 |  |
| C=CC(=O)N1CCC(Nc2cc3c(Nc4cc(-c5ccc(F)cc5F)ccc4OC)ncnc3cc2OC2CCOC2)CC1 (stereo not shown) [Example 286, 1-(4-((4-((2′,4′-difluoro-4-methoxy-[1,1′-biphenyl]-3-yl)amino)-7-((tetrahydrofuran-3-yl)oxy)quinazolin-6-yl)amino)piperidin-1-yl)prop-2-en-1-one] |  |  |  | ≤ 150 | ≤ 150 | ≤ 150 | ≤ 150 |  |
| C=CC(=O)N1CCC(Nc2cc3c(Nc4cc(-c5ccco5)ccc4OC)ncnc3cc2OC)CC1 [Example 298, 1-(4-((4-((5-(furan-2-yl)-2-methoxyphenyl)amino)-7-methoxyquinazolin-6-yl)amino)piperidin-1-yl)prop-2-en-1-one] |  |  |  | ≤ 150 | ≤ 150 | ≤ 150 | ≤ 150 |  |
| C=CC(=O)N1CCC(Nc2cc3c(Nc4cc(-c5ccc(F)cc5F)ccc4OC)ncnc3cc2OC)CC1 [Example 299, 1-(4-((4-((2′,4′-difluoro-4-methoxy-[1,1′-biphenyl]-3-yl)amino)-7-methoxyquinazolin-6-yl)amino)piperidin-1-yl)prop-2-en-1-one] |  |  |  | ≤ 150 | ≤ 150 | ≤ 150 | ≤ 150 |  |
